From PMC12238238, “Identification of gut bacteria reductases that biotransform steroid hormones” (Nature Communications, 2025)
pKd: −log10 of the molar value.

Tests used:
baiH = biological target: T1, baiH ([Clostridium] scindens, UniProt P32370); experiment: LC-MS of products in E. coli expressing the gene; type: cell-based; conditions: whole E. coli cells, anaerobic, 1 mg/100 mL steroid, 48 h, 37 °C; product progesterone
T1 construct: expressed in E. coli, whole-cell biotransformation
T1 sequence (P32370 1-661): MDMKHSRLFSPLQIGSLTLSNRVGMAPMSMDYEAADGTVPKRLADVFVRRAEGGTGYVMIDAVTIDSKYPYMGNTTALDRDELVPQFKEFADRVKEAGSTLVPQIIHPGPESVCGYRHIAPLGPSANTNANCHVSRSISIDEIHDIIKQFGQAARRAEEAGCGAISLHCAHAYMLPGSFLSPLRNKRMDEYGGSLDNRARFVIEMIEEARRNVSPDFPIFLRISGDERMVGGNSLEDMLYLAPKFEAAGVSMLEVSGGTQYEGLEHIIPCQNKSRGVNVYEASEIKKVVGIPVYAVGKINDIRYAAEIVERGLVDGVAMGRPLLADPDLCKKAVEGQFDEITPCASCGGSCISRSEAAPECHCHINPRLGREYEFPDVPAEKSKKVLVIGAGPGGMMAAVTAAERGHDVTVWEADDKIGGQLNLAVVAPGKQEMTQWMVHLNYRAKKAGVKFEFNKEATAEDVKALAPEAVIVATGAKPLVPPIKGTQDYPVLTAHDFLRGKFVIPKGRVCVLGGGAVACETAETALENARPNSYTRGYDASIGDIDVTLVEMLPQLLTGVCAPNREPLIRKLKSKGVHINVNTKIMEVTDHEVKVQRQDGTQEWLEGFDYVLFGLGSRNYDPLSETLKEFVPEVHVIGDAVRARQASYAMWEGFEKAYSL

[1] = biological target: T2, ci2350 (Δ4-3-ketosteroid 5β-reductase); experiment: isothermal titration calorimetry; type: binding, [Clostridium] innocuum; conditions: 0.1 M sodium phosphate, 0.2 M NaCl, 20 mM BME, 0.5 mM CHAPS, pH 6.5, 25 °C; independent model, single site
T2 construct: recombinant in E. coli, Ni HisTrap purified (pET28a/kanamycin); mutants assayed in E. coli cells

dw0523 (3β-HSDH/I) = biological target: T3, dw0523 (3β-HSDH/I) (Dysosmobacter welbionis, UniProt A0A4D7AXI1); experiment: LC-MS of products in E. coli expressing the gene; type: cell-based; conditions: whole E. coli cells, anaerobic, 1 mg/100 mL steroid, 48 h, 37 °C; product progesterone
T3 construct: gene EIO64_02590; expressed in E. coli, whole-cell biotransformation; separate (unfused) 3β-HSDH/I gene
T3 sequence (A0A4D7AXI1 1-497): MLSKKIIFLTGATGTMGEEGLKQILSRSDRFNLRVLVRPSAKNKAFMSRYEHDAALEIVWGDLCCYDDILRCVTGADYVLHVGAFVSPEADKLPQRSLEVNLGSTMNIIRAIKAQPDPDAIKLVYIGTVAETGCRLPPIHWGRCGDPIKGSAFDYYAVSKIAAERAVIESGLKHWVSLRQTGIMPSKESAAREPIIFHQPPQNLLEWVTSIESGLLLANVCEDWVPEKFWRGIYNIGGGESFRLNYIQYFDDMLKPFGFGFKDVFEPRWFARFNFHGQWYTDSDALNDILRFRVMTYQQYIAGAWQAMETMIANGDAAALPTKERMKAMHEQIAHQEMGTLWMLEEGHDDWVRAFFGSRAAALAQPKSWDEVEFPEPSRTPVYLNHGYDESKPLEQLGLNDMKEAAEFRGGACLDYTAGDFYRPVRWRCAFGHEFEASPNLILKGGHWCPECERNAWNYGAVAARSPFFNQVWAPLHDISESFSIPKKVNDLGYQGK

baiCD = biological target: T4, baiCD ([Clostridium] scindens, UniProt P19410); experiment: LC-MS of products in E. coli expressing the gene; type: cell-based; conditions: whole E. coli cells, anaerobic, 1 mg/100 mL steroid, 48 h, 37 °C; product 5β-dihydroprogesterone
T4 construct: expressed in E. coli, whole-cell biotransformation
T4 sequence (P19410 1-639): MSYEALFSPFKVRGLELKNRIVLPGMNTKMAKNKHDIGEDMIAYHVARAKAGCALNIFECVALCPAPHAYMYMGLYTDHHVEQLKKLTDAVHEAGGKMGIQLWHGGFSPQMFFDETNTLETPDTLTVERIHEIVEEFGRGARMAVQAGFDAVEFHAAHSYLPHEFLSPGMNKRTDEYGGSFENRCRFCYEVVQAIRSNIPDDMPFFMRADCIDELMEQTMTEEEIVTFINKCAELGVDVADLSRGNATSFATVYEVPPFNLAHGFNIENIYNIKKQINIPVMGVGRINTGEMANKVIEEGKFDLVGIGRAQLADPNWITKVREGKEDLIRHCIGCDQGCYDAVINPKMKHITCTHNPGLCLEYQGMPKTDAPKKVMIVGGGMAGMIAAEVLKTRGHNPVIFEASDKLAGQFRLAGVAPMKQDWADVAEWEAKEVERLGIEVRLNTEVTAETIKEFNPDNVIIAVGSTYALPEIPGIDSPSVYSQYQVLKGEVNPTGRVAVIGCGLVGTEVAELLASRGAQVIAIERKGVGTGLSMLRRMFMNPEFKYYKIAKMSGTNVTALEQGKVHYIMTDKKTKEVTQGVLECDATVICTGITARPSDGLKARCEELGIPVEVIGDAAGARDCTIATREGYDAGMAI

SMILES | LC-MS of products in E. coli expressing the gene (baiH) | pKd [1] | LC-MS of products in E. coli expressing the gene (dw0523 (3β-HSDH/I)) | LC-MS of products in E. coli expressing the gene (baiCD)
CC(=O)[C@H]1CC[C@H]2[C@@H]3C=CC4=CC(=O)CC[C@]4(C)[C@H]3CC[C@]12C [6-dehydroprogesterone] | only partial conversion of the substrate by C. scindens baiH | 6.23 |  | 
C[C@]12CCC(=O)C=C1CC[C@@H]1[C@@H]2C(=O)C[C@@]2(C)[C@H]1CC[C@]2(O)C(=O)CO [cortisone] |  | 6.12 |  | 
C[C@]12CCC(=O)C=C1CC[C@@H]1[C@@H]2[C@@H](O)C[C@@]2(C)[C@H]1CC[C@]2(O)C(=O)CO [hydrocortisone] |  | 6.18 |  | 
CC(=O)[C@H]1CC[C@H]2[C@@H]3CC=C4C[C@@H](O)CC[C@]4(C)[C@H]3CC[C@]12C [pregnenolone] |  |  | with dw0523 producing only progesterone | 
CC(=O)[C@H]1CC[C@H]2[C@@H]3CCC4=CC(=O)CC[C@]4(C)[C@H]3CC[C@]12C [progesterone] |  | 6.36 |  | baiCD had limited, but detectable, reduction of progesterone
